Entries after “also recorded” stand apart in the source; their conditions may differ.
How the values were obtained:
[1] = system: TEAD transcriptional activity; test: TEAD luciferase reporter assay; format: cell-based, human; details: for TEAD reporter activity: 293T and H2373 cells, 24 hours, comparison of TNKS and PARP1/2 inhibitors
Procedure: A set of in-house kinase and commercially available inhibitors was used to screen for effects on the TEAD luciferase reporter. 293 cells expressing the TEAD reporter along with renilla-lucifease (20:1 ratio) were plated at low density (2×10^4 cells) in 24 well plates in triplicate. 24 hours after plating, the cells were treated with 10 μM of each compound or DMSO as control. 24 hours later, dual-luciferase reporter assay was performed according to the manufacturer's protocol (Promega, Madison Wis., USA), using TD-20e Luminometer (Turner Biosystem, Promega, Madison Wis., USA). TEAD reporter activity was normalized to renilla luciferase. The Log 2 values were calculated for each compound using the DMSO sample as control.

[2] = system: TEAD target genes (CTGF, CYR61, ANKRD1); test: Quantitative RT-PCR of TEAD target genes; format: cell-based, human; details: for TEAD target gene expression (CTGF, CYR61, ANKRD1 mRNA): 293T and H2373 cells, 10 μM
Procedure: (§1) Total RNA was extracted from cells using the RNeasy Mini kit (Qiagen, Hilden, Germany) following the manufacturer's instructions. 1 μg of total RNA was used for cDNA synthesis using Superscript II (Invitrogen, Carlsbad, Calif., USA) according to the manufacturer's instructions.
(§2) Quantitative RT-PCR was performed using the ViiA™ 7 Real-Time PCR System (Life Technologies, Carlsbad, Calif., USA) using the FastStart SYBR Green Master mix (Roche, Indianapolis, Ind., USA). Primers were as follows: […]
(§3) PCR was performed in 384 well plates in 10 μl total volumes under the following conditions: 95° C. for 15 min, followed by 40 cycles of 94° C. for 15 sec, 61° C. for 30 sec, and 72° C. for 30 sec. Specificity was verified by a dissociation curve. Results were analyzed with ViiA7 RUO software (Life Technologies, Carlsbad, Calif., USA). Gene expression levels were normalized to GAPDH expression.

H2373 cells = test: Clonogenic proliferation (colony formation) assay, H2373; format: cell-based, human; details: for proliferation / colony formation: H2373 cells (NF2 mutant), 10 to 14 days
Procedure: (§6) For clonogenic proliferation assay, cells were plated in triplicate at 1×10^3 cells in 6-well plates. For analysis of the effects of inhibitors on cell proliferation, fresh medium with inhibitor was replaced every 48 hours. After 10 to 14 days of treatment, cultures were fixed and stained with 1% crystal violet (in ethanol) and photographed.

[3] = system: AMOT, AMOTL1, AMOTL2 mRNA; test: qRT-PCR of angiomotin mRNA levels; format: cell-based, human; details: 293T and H2373 cells, 10 μM, 24 hours
Procedure: as §1, §2, §3

[4] = system: angiomotin proteins (AMOT, AMOTL2); test: Western blot of angiomotin protein levels; format: cell-based, human; details: 10 μM; for angiomotin protein levels (AMOT in 293T, AMOTL2 in H2373): 293T and H2373 cells
Procedure: (§4) Cells were harvested in EBC lysis buffer (50 mM Tris-HCl at pH 7.5, 150 mM NaCl, 5 mM EDTA, 0.5% NP-40), supplemented with Complete Mini Protease and Phosphatase Inhibitor Cocktails (Roche, Indianapolis, Ind., USA). Cells were lysed and 30-80 μg protein subjected to SDS-PAGE followed by transfer onto an Immobilon-FL PVDF membrane (Millipore, Billerica, Mass., USA) and incubation with the indicated antibodies. Detection was carried out with an Odyssey Infrared Imaging System (LI-COR Biosciences, Lincoln, Nebr., USA) with IR dye-tagged secondary antibodies (LI-COR Biosciences). The following antibodies were utilized: mouse anti-YAP, goat anti-NF2, mouse anti-AMOT, goat anti-AMOTL1, goat anti-AMOTL2 (Santa Cruz, Dallas, Tex., USA), mouse anti-FlagM2 (Sigma, Saint Louis, Mo., USA), rabbit anti-LATS1, rabbit anti-LATS2, rabbit anti-p-YAP (Cell Signaling, Danvers, Mass., USA), TNKS1/2 (Santa Cruz, Dallas, Tex., USA), mouse anti-TEAD4, mouse anti-RAS (Thermo Scientific, Waltham, Mass., USA), mouse anti-α-Tubulin, mouse anti-β-actin (Sigma, Saint Louis, Mo., USA).

[5] = system: Hippo pathway mutant tumor cells and Hippo pathway wild-type cells; test: Cell cycle profile by Propidium Iodide staining; format: cell-based, human; details: 10 μM, 72 hours
From the text: Statistical analysis of the cell cycle profile is shown below. Error bars indicate SD of experiments performed in triplicate.

[6] = system: MCF10A cells stably expressing HRAS-V12; test: Anchorage-independent growth assay, HRAS-V12-transformed MCF10A; format: cell-based, human; details: MCF10A stably expressing HRAS-V12, 3 weeks
Procedure: (§5) Cells were fed every 4 days for 3 weeks by adding 0.2 mL of growth medium containing either 0.1% DMSO as a control or compounds in 0.1% DMSO at the concentrations indicated.

YAP = test: Immunofluorescence of YAP sub-cellular localization; format: cell-based, human; details: 24 hours
Procedure: Cells cultured on glass coverslips were fixed for 10 min with 4% paraformaldehyde in 1×PBS at 37° C. and permeabilized for 3 min with 0.02% Triton-X100, following exposure for 1 hour to a blocking solution (PBS containing 5% BSA). Coverslips were then incubated at room temperature with the following primary antibodies: anti-YAP (Santa Cruz, Dallas, Tex., USA) and anti-Flag M2 (Sigma, Saint Louis, Mo., USA). Corresponding secondary antibodies were Alexa fluor conjugated (Molecular Probes, Eugene, Oreg., USA). 2 μg/ml DAPI was used as a counter stain and was used to label nuclei. Imaging was performed using an Axioplan 2 Imaging System (Zeiss, Oberkochen, Germany).

YAP S127 phosphorylation = test: Western blot of YAP S127 phosphorylation; format: cell-based, human; details: H2373 cells, varying XAV939 concentrations, 24 hours
Procedure: as §4

PTEN = test: Western blot of PTEN levels; format: cell-based, human; details: H2052 and H2373 cells, 10 μM, time course
Procedure: as §4

AMOT-YAP protein complex = test: Co-immunoprecipitation of endogenous AMOT and YAP; format: cell-based, human; details: 293T cells, 10 μM, 24 hours
Procedure: Cells were harvested in RIPA lysis buffer (50 mM Tris-Cl; pH 8.0, 5 mM EDTA, 1% Triton X-100, 0.1% sodium deoxycholate, 0.1% SDS, 150 mM NaCl) supplemented with Complete Mini Protease and Phosphatase Inhibitor Cocktails. 800 μg proteins were incubated with 10 μg of antibody overnight at 4° C. Anti-mouse or anti-rabbit IgG (Santa Cruz, Dallas, Tex., USA) was used as a negative control. Immunoprecipitated complexes were captured by 2 h incubation at 4° C. with Dynabeads Protein A/G B (Invitrogen, Carlsbad, Calif., USA), followed by three washes in lysis buffer. Immunoprecipitated complexes were eluted by boiling for 5 min with Laemmli buffer (150 mM Tris-Cl; pH 6.8, 20% glycerol, 4% SDS, 0.002% bromophenol blue, 2% 2-mercaptoethanol) with 10% of the total lysates run on the same gel for comparative immunoblot analysis.

[7] = system: YAP overexpressing MCF10A cells; details: cited from earlier work
angiomotin = details: reported by Wang et al. 2015; cited from earlier work
293T cells = test: Clonogenic proliferation (colony formation) assay, 293T; format: cell-based, human; details: 10 to 14 days
Procedure: as §6

[8] = system: MCF10A cells stably expressing YAP-WT or YAP-S127A; test: Anchorage-independent growth assay, YAP-transformed MCF10A; format: cell-based, human; details: 3 weeks
Procedure: as §5

[9] = system: liver tumor growth induced by YAP overexpression or NF2 inactivation; details: mice, tumors induced by YAP overexpression or NF2 inactivation; cited from earlier work

O=C(Nc1cccc2cccnc12)c1ccc(N2C(=O)[C@@H]3[C@H](C2=O)[C@@H]2C=C[C@H]3C2)cc1 [IWR1]
TEAD reporter activity [1]: able to inhibit | TEAD target gene expression (CTGF, CYR61, ANKRD1 mRNA) ([2]; 24 hours): able to inhibit | proliferation / colony formation (H2373 cells): significantly decreased | AMOT, AMOTL1, AMOTL2 mRNA levels [3]: did not markedly affect | angiomotin protein levels (AMOT in 293T, AMOTL2 in H2373) ([4]; 24 hours): strikingly increased

Oc1nc(-c2ccc(C(F)(F)F)cc2)nc2c1CSCC2 [XAV939]
inhibitory effect on TEAD transcriptional activity under AMOTL2 silencing ([1]; H2373 cells, doxycycline-inducible AMOTL2 shRNA, 10 μM XAV939): almost completely rescued | expression of TEAD target genes (CTGF, CYR61, ANKRD1 mRNA) ([2]; H2052 cells, 24 hours): only modestly affected | expression of TEAD target genes ([2]; MCF10A cells stably overexpressing YAP-S127A): inhibited | expression of TEAD target genes (CTGF, CYR61, ANKRD1 mRNA) ([2]; all cell lines tested with the exception of H2052, 24 hours): markedly decreased | inhibitory effect on colony formation under AMOTL2 silencing (H2373 cells; H2373 cells, doxycycline-inducible AMOTL2 shRNA, 10 μM XAV939, 14 days): almost completely rescued | cell cycle profile ([5]; cell lines which were not growth inhibited): no detectable cell cycle alteration | cell cycle profile ([5]; tumor lines whose proliferation was inhibited): increased G1 and reduced S phase fractions | HRAS-V12-induced agar colony formation [6]: lacked any effect; also recorded: not inhibited | YAP sub-cellular localization (YAP; H2373 cells, endogenous YAP): induced YAP re-localization to the cytoplasm | YAP-S127A sub-cellular localization (YAP; MCF10A stably expressing YAP-S127A): significant shift of YAPS127A to the cytoplasm | YAP S127 phosphorylation status (YAP S127 phosphorylation): did not show any significant differences | AMOT, AMOTL1, AMOTL2 mRNA levels [3]: did not markedly affect | angiomotin protein levels (AMOT in 293T, AMOTL2 in H2373) ([4]; 24 hours): strikingly increased | AMOTL2 protein levels ([4]; H2052 cells, 24 hrs): increased | AMOTL2 protein levels, time course ([4]; H2373 as compared to resistant H2052 cells, 12 days): stabilized higher, durable levels | AMOTL2 levels ([4]; Hippo mutant MESO25 and 211H cells, 24 hours): Increased | durable stabilization of AMOTL2 ([4]; resistant H2052 cells): failed to durably stabilize | levels of PTEN (PTEN): increased modestly | AMOT-YAP protein complex (AMOT-YAP protein complex): enrichment | acini formation in matrigel [7]: inhibited | angiomotin stabilization (angiomotin): stabilized

CC(C)c1ccc(-c2cc(=O)c3ccccc3o2)cc1 [MN-64]
TEAD reporter activity [1]: able to inhibit | TEAD target gene expression (CTGF, CYR61, ANKRD1 mRNA) ([2]; 24 hours): able to inhibit | proliferation / colony formation (H2373 cells): significantly decreased | AMOT, AMOTL1, AMOTL2 mRNA levels [3]: did not markedly affect | angiomotin protein levels (AMOT in 293T, AMOTL2 in H2373) ([4]; 24 hours): strikingly increased

C[C@]1(c2nc3c(C(N)=O)cccc3[nH]2)CCCN1 [ABT-888]
TEAD reporter activity [1]: did not affect | TEAD target gene expression (CTGF, CYR61, ANKRD1 mRNA) ([2]; 24 hours): did not affect | proliferation / colony formation (293T cells): did not affect | proliferation / colony formation (H2373 cells): did not affect | AMOT, AMOTL1, AMOTL2 mRNA levels [3]: lacked any effect | angiomotin protein levels (AMOT in 293T, AMOTL2 in H2373) ([4]; 24 hours): lacked any effect

verteporfin
YAP-WT- and YAP-S127A-induced anchorage-independent cell growth (soft agar colonies) [8]: completely blocked | HRAS-V12-induced agar colony formation [6]: completely blocked | liver tumor growth [9]: suppressed

From US11246868B2, “Treatment of hippo pathway mutant tumors and methods of identifying subjects as candidates for treatment” (ICAHN SCHOOL OF MEDICINE AT MOUNT SINAI, priority 2016, dated 2022)
